# Laboratory results as given in US20240318182A1, “METHODS OF TREATING OR PREVENTING SPINAL MUSCULAR ATROPHY” (BIOGEN MA INC., priority 2019, published 2024).
# Key:
# [1] = tested on: nonhuman primate; test: Nonhuman primate safety studies; format: in vivo
# [2] = tested on: subjects with infantile-onset SMA; test: PK/PD (Emax) model of CSF Ctrough versus change from baseline in CHOP-INTEND; design: species or system human; details: model projection
# Excerpt: Dashed (long), solid, and dashed (shorter) line represents the predicted PK/PD relationship when Emax was fixed at 10, 25, and 40, respectively. The observed data are divided based on 10 quantiles of CSF Ctrough values. The empty and filled circles represent the mean observed and predicted change in CHOP-INTEND from baseline, respectively.
# [3] = human, in vivo
# Experimental: In studies to explore the relationship between nusinersen exposure and clinical response, data from subjects with infantile-onset SMA (subjects <6 months of age at diagnosis or symptom onset) were used. Analyses were conducted to characterize a quantitative PK/PD relationship for nusinersen and to determine if higher nusinersen exposure is associated with additional efficacy in the infantile-onset SMA population.
# [4] = tested on: pNf-H; test: Plasma pNf-H biomarker in nusinersen clinical trials; format: in vivo, human; details: SMA types 1, 2 and presymptomatic infants
# Excerpt: In nusinersen clinical trials with SMA types 1, 2 and presymptomatic infants, plasma pNf-H differentiated SMA individuals from healthy controls. […] Thus assessing the levels of neurofilament (e.g., pNf-H and/or NfL) can be a helpful biomarker prior or during treatment.
# [5] = tested on: subjects with infantile-onset SMA; test: Exposure-response and motor function / motor milestones in nusinersen clinical studies; format: in vivo, human
# Experimental: During the nusinersen clinical development program, an exploratory exposure-response analysis was conducted using data for 14 subjects with infantile-onset SMA who received nusinersen. […] All subjects received maintenance doses of 12 mg every 4 months after Day 85. Separation of the response curves for the 2 cohorts began around Day 29 and became wider over the course of the study.
substance,measurement,setting,value
nusinersen,safety of 28 and 50 mg doses,[1],support the use of these doses
same,CSF Ctrough that will achieve 90% of the maximum observed response,[2],23 ng/mL
same,maximum mean [SD] CSF Ctrough,[3],31.3 [24.8] ng/mL
same,plasma pNf-H after treatment initiation,[4],rapid decline followed by stabilization
same,attainment of motor milestones,"[5]; 12 mg loading doses versus 6 mg loading doses on Days 1, 15, 85, infantile-onset SMA",earlier and greater improvement
same,correlation between nusinersen CSF exposure and motor function,"[5]; 14 subjects with infantile-onset SMA, exploratory exposure-response analysis",statistically significant positive correlation
same,correlation between CSF Ctrough and total motor milestones scores,"[5]; infantile- or later-onset SMA, 12 mg as 4 loading doses then every 4 months, preliminary analysis, data not shown",positive correlation
same,improvement in motor function,"[5]; more frequent dosing: 12 mg loading Days 1, 15, 29, 64, 12 mg maintenance every 4 months, infantile-onset SMA",Greater improvement
